The text below walks through data of US20230107277A1, “SUBSTITUTED PYRIDAZINE COMPOUND” (Astellas Pharma Inc., priority 2020, published 2023).

This assay has as its system IL-1β Production of THP-1. The assay is described as follows: Test on IL-1β production of THP-1 (LPS and ATP stimulation, ELISA). Format: cell-based. The following applies: Homo sapiens; PMA-differentiated THP-1 cells, LPS 50 ng/mL and ATP 5 mM, 2 hours. The procedure:
50 ng/mL of PMA (phorbol myristate acetate, SIGMA, P1585) was added to THP-1 cells, and the cells were cultured at 37° C. for 2 days. […] LPS (Lipopolysaccharide, SIMGA, L2880) and ATP (Adenosine triphosphate, SIGMA, A2383) were added to final concentrations of 50 ng/mL and 5 mM, respectively, and the cells were cultured at 37° C. for 2 hours. The supernatant was collected, and the concentration of IL-1β was measured by an ELISA method (DuoSet ELISA human IL-1β, R&D Systems, DY201). […] The IC50 value was calculated by sigmoid […] model non-linear regression analysis.
Background: An ELISA detects its analyte on a solid surface through an enzyme-linked reagent.
The IC50 is the point on the concentration scale where inhibition reaches its midpoint. Lower therefore signals greater potency in that assay. As for `Cc1c(NC[C@@H](C)O)nnc(-c2ccc(Cl)cc2O)c1C` [Example 65], the IC50 was determined as 49 nM.
As for `Cc1cc(-c2ccc(C(F)(F)F)cc2C(F)(F)F)nnc1N[C@@H]1CCCC[C@H]1O` [Example 17], the figure is 110 nM; as for `O=C(NCCCCNc1ccc(-c2ccc(C(F)(F)F)cc2C(F)(F)F)nn1)C(F)F` [Example 46, N-[4({6-[2,4-bis(trifluoromethyl)phenyl]pyridazin-3-yl}amino)butyl]-2,2-difluoroacetoamide], 120 nM; as for `CC(=O)O[C@H](C)CNc1cc(C)c(-c2ccc(C(F)(F)F)cc2O)nn1` [Example 34], 21 nM.
As for `CC(C)c1cc(NC[C@@H](C)O)nnc1-c1ccc(C(F)(F)F)cc1C(F)(F)F` [Example 61], the figure is 1500 nM; as for `COc1ccc(-c2cc(C)c(NC[C@@H](C)O)nn2)c(C2CC2)c1` [Example 22], 530 nM; as for `OCCCNc1cc(-c2ccccc2)c(-c2ccc(C(F)(F)F)cc2)nn1` [Example 1, 3-({5-phenyl-6-[4-(trifluoromethyl)phenyl]pyridazin-3-yl}amino)propan-1-ol], 980 nM.
`CC(O)CNc1ccc(-c2ccc(C(F)(F)F)cc2C(F)(F)F)nn1` (centres unmarked) [Example 10]: half-maximal inhibition (IC50) was put at 200 nM.
As for `CC(=O)NCCCCNc1ccc(-c2ccc(C(F)(F)F)cc2C(F)(F)F)nn1` [Example 11], the midpoint of inhibition, the IC50, lay at 150 nM.
As to `COc1cccc(-c2nnc(NC[C@@H](C)O)cc2C)c1O` [Example 31], inhibition was half-maximal at 270 nM (IC50).
Compound `C[C@@H](O)CNc1nnc(-c2ccc(C(F)(F)F)cc2O)cc1N(C)C` [Example 35] returned an IC50 of 590 nM.
`CCc1cc(NC[C@@H](C)O)nnc1-c1ccc(C(F)(F)F)cc1O` [Example 64] returned an IC50 of 33 nM.
As to `Cc1cc(NC[C@@H](C)O)nnc1-c1ccc(C(F)(F)F)cc1O` [Example 7, 2-(6-{[(R2R)-2-hydroxypropyl]amino}-4-methylpyridazin-3-yl)-5-(trifluoromethyl)phenol], the 50% inhibitory concentration (IC50) is 17 nM.
As for `C[C@@H](O)CNc1nnc(-c2ccc(C(F)(F)F)cc2O)cc1C#N` [Example 37], the figure is 33 nM; as for `C[C@@H](O)CNc1cc(C2CC2)c(-c2ccc(Cl)cc2O)nn1` [Example 78], 43 nM.
`Cc1cc(N[C@@H]2CCCC[C@H]2O)nnc1-c1ccc(C(F)(F)F)cc1C(F)(F)F` [Example 16] yielded an IC50 of 200 nM.
With `C[C@@H](O)CNc1cc(-n2ccnc2)c(-c2ccc(C(F)(F)F)cc2C(F)(F)F)nn1` [Example 55], the concentration for half-maximal inhibition (IC50) stood at 5100 nM.
For `C[C@@H](O)CNc1nnc(-c2ccc(C(F)(F)F)cc2C(F)(F)F)cc1C(=O)N(C)C` [Example 14] the value was 330 nM; for `C[C@@H](O)CNc1cc(C2CC2)c(-c2ccc(C(F)(F)F)cc2C(F)(F)F)nn1` [Example 29], 460 nM; for `Cc1cc(NC[C@@H](C)O)nnc1-c1cccc(F)c1O` [Example 30], 510 nM.
`CC(C)c1cc(NC[C@@H](C)O)nnc1-c1ccc(C(F)(F)F)cc1O` [Example 26] registered an IC50 of 54 nM.
Compound `COc1ccc(-c2nnc(NC[C@@H](C)O)cc2C)c(O)c1` [Example 69] gave an IC50 of 250 nM.
On to `C[C@@H](O)CNc1ccc(-c2ccc(C(F)(F)F)cc2O)nn1` [Example 18], for which the midpoint of inhibition, the IC50, lay at 260 nM.
For `COc1ccc(-c2cc(C)c(NC[C@@H](C)O)nn2)c(C(F)(F)F)c1` [Example 21] the value was 160 nM.
For `C[C@@H](O)CNc1nnc(-c2ccc(C(F)(F)F)cc2C(F)(F)F)cc1C(=O)N1CCOCC1` [Example 40, (6-[2,4-bis(trifluoromethyl)phenyl]-3-{[(2R)-2-hydroxypropyl]amino}pyridazin-4-yl)(morpholin-4-yl)methanone] the value was 240 nM; for `COc1ccc(-c2nnc(NC[C@@H](C)O)cc2C)c(C(F)(F)F)c1` [Example 59], 750 nM; for `Cc1c(NCC(C)CO)nnc(-c2ccc(C(F)(F)F)cc2O)c1C` (centres unmarked) [Example 71], 38 nM.
Compound `Cc1cc(C)n(-c2cc(-c3ccc(C(F)(F)F)cc3C(F)(F)F)nnc2NC[C@@H](C)O)n1` [Example 15] gave a half-maximal inhibitory concentration (IC50) of 97 nM.
The compound `C[C@@H](O)CNc1nnc(-c2ccc(C(F)(F)F)cc2C(F)(F)F)cc1C(=O)N1CCOC[C@@H]1C` [Example 57] returned a 50% inhibitory concentration (IC50) of 1600 nM.
In turn, `C[C@@H](O)CNc1ccc(-c2ccc(C(F)(F)F)cc2C(F)(F)F)nn1` [Example 12] yielded a concentration for half-maximal inhibition (IC50) of 150 nM.
In turn, `Cc1cc(NCCCO)nnc1-c1ccc(C(F)(F)F)cc1` [Example 52] had a half-maximal inhibitory concentration (IC50) of 470 nM.
Regarding `Cc1cc(-c2ccc(C(F)(F)F)cc2O)nnc1NC[C@@H](C)O` [Example 8, 2-(6-{[(R2R)-2-hydroxypropyl]amino}-5-methylpyridazin-3-yl)-5-(trifluoromethyl)phenol], 160 nM corresponded to half-maximal inhibition (IC50).
The compound `O=C(NCCCCNc1ccc(-c2ccc(C(F)(F)F)cc2C(F)(F)F)nn1)C1CC1` [Example 48] returned an IC50 of 510 nM.
In turn, `CCOC(=O)c1cc(-c2ccc(C(F)(F)F)cc2C(F)(F)F)nnc1NC[C@@H](C)O` [Example 3, ethyl 6-[2,4-bis(trifluoromethyl)phenyl]-3-{[(2R)-2-hydroxypropyl]amino}pyridazine-4-carboxylate] had a half-inhibitory concentration (IC50) of 120 nM.
Regarding `COc1ccc(-c2nnc(NC[C@@H](C)O)cc2C)c(C2CC2)c1` [Example 60], the midpoint of inhibition, the IC50, lay at 1700 nM.
Take `CC(=O)N[C@H](C)CNc1ccc(-c2ccc(C(F)(F)F)cc2C(F)(F)F)nn1` [Example 45, N—[(R2R)-1-({6-[2,4-bis(trifluoromethyl)phenyl]pyridazin-3-yl}amino)propan-2-yl]acetoamide]: inhibition was half-maximal at 530 nM (IC50).
Take `Cc1c(NC[C@H](C)O)nnc(-c2ccc(C(F)(F)F)cc2O)c1C` [Example 73]: the IC50 was 43 nM.
As for `OCCCNc1cc(-c2ccco2)c(-c2ccc(C(F)(F)F)cc2)nn1` [Example 51], the figure is 990 nM.
`OCCCNc1cc(-c2ccccc2)c(-c2ccc(C(F)(F)F)cc2C(F)(F)F)nn1` [Example 54]: the IC50 came to 3500 nM.
In the case of `Cc1cc(NC[C@@H](C)O)nnc1-c1ccccc1O` [Example 25], the half-inhibitory concentration (IC50) stood at 500 nM.
On to `Cc1cc(NC[C@@H](C)O)nnc1-c1ccc(C(F)(F)F)cc1C(F)(F)F` [Example 5, (2R)-1-({6-[2,4-bis(trifluoromethyl)phenyl]-5-methylpyridazin-3-yl}amino)propan-2-ol], for which the half-maximal inhibitory concentration (IC50) turned out to be 200 nM.
`C[C@@H](O)CNc1cc(C2CC2)c(-c2ccc(C(F)(F)F)cc2O)nn1` [Example 32] returned an IC50 of 11 nM.
In turn, `CC(C)C(=O)NCCCCNc1ccc(-c2ccc(C(F)(F)F)cc2C(F)(F)F)nn1` [Example 47] registered a half-inhibitory concentration (IC50) of 400 nM.
Take `Cc1cc(-c2ccc(C(F)(F)F)cc2)nnc1NCCCO` [Example 53]: the midpoint of inhibition, the IC50, lay at 2700 nM.
Consider `CC(C)c1cc(-c2ccc(C(F)(F)F)cc2C(F)(F)F)nnc1NC[C@@H](C)O` [Example 24], for which the IC50 was 560 nM.
As for `Cc1cc(NC[C@@H](C)O)nnc1-c1cc(F)ccc1O` [Example 62], the figure is 2100 nM; as for `Cc1cc(NC[C@@H](C)O)nnc1-c1ccc(F)cc1O` [Example 27], 190 nM.
